Common to all, as to type: functional
In one experiment the test system is Bacillus cereus. Kind of experiment: Antibacterial activity against Bacillus cereus DSM318 after 24 hrs at 37 degC by serial dilution method. The following applies: DSM318, 24 h.
The next experiment deals with Staphylococcus aureus. In words: Antibacterial activity against Staphylococcus aureus ATCC 13709 after 24 hrs at 37 degC by serial dilution method. The following applies: ATCC 13709, 24 h.
Experiment [1] relates to Agrobacterium tumefaciens. In words: Antibacterial activity against Agrobacterium tumefaciens ATCC 23308 after 24 hrs at 37 degC by serial dilution method. To be noted: ATCC 23308, 24 h.
Another experiment deals with Candida albicans. Kind of experiment: Antifungal activity against Candida albicans ATCC 10231 after 24 hrs at 37 degC by serial dilution method. To be noted: ATCC 10231, 24 h.
A further experiment relates to Candida tropicalis. In words: Antifungal activity against Candida tropicalis DSM1346 after 24 hrs at 37 degC by serial dilution method.
A further experiment has as its system Rhodotorula glutinis. Kind of experiment: Antifungal activity against Rhodotorula glutinis DSM70398 after 24 hrs at 27 degC by serial dilution method.
For a further experiment, the system named is Aspergillus niger. In words: Inhibition of spore germination of Aspergillus niger DSM737 after 24 hrs at 27 degC by serial dilution method. The following applies: DSM737, 24 h.
For the next experiment, the system named is Aspergillus ochraceus. In words: Inhibition of spore germination of Aspergillus ochraceus DSM63304 after 24 hrs at 27 degC by serial dilution method.

The source of these data is ChEMBL document CHEMBL1149050, “An antifungal polyacetylenic compound from the culture filtrate of the fungus Trametes pubescens” (1994).

Converted amounts (≈) assume the structure as drawn.

As usually defined, the MIC is the least concentration at which growth counts as inhibited. The low end stands for a more susceptible organism, the high end for a less susceptible organism.

For `CC#CC#CC#C[C@@H]1O[C@@H]1CO` (relative stereo), the MIC in the experiment with Bacillus cereus was above 100 µg/mL; against Staphylococcus aureus, above 100 µg/mL; in experiment [1], above 100 µg/mL; in the experiment on Candida albicans, 50 µg/mL (≈ 312 µM); in the experiment with Candida tropicalis, 50 µg/mL (≈ 312 µM); with Rhodotorula glutinis, 10 µg/mL (≈ 62.4 µM). Besides, the MIC against Aspergillus niger and in the experiment with Aspergillus ochraceus was 1 µg/mL (≈ 6.24 µM) throughout.
